From US7553837B2, “Phenylazole compounds production process and antioxidants” (Nippon Soda Co., Ltd., priority 2003, dated 2009)
pIC50: −log10 of the molar value.

How the values were obtained:
[1] = biological target: T1, 15-LO obtained from reticulocyte of rabbit (Oryctolagus cuniculus, UniProt P12530); experiment: 15-lipoxygenase (15-LO) inhibitory activity, 15-HETE production; format: biochemical; details: 15-LO from reticulocyte of rabbit, linoleic acid
T1 construct: 15-LO obtained from reticulocyte of rabbit; from tissue; host or cells: rabbit reticulocytes
T1 sequence (P12530 1-663): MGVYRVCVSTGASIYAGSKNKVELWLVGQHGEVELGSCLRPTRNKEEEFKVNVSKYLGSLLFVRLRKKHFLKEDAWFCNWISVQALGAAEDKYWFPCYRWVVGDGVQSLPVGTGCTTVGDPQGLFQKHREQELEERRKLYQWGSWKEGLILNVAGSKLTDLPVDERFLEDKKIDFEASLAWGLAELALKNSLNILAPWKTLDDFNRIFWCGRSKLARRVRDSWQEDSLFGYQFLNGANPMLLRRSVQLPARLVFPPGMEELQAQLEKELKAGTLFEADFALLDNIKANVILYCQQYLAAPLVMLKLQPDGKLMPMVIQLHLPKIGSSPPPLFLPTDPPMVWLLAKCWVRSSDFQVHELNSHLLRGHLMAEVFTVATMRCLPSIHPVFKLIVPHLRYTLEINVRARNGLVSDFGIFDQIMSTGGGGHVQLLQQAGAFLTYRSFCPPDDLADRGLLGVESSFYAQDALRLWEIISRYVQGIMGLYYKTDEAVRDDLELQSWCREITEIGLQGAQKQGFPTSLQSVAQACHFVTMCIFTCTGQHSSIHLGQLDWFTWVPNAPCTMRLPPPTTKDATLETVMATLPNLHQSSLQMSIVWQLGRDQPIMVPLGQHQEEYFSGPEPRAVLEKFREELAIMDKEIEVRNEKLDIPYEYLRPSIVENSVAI
Experimental: A 15-LO inhibitory activity was measured by a partially modified process of a process of Auerbach et al. (Auerbach B. J, et al., Anal. Biochem.: 201, 375-80, 1992). That is, 15-LO obtained from reticulocyte of rabbit and each of test compounds dissolved in DMSO (final concentration: 1%) were preincubated (4° C., 15 minutes) in phosphoric acid buffer (pH 7.4) and 256 μM linoleic acid was further added, followed by incubation (4° C., 10 minutes). The amount of 15-HETE produced as a result of incubation was determined by spectrophotometry (OD660nm) and 50% production inhibitory concentration (μM) against 15-LO of each test compound was calculated. Compounds (R-3) and (R-4) (edaravone) of the following formulas were used as a control drug.

5-lipoxygenase (5-LO) = biological target: T2, 5-lipoxygenase (5-LO) (Homo sapiens, UniProt P09917); experiment: 5-lipoxygenase (5-LO) inhibitory activity, leukotriene B4 production in human peripheral blood mononuclear cells; format: cell-based; details: for 5-LO, percentage given after >10: bracketed value beside IC50 >10 μM, not explained, presumably inhibition at 10 μM; for pIC50: human peripheral blood mononuclear cells, A23187, leukotriene B4 production
T2 construct: human peripheral blood mononuclear cells and each of test compounds dissolved in DMSO (final concentration: 1%) were preincubated; endogenous in cells; host or cells: human peripheral blood mononuclear cells
T2 sequence (P09917 1-674): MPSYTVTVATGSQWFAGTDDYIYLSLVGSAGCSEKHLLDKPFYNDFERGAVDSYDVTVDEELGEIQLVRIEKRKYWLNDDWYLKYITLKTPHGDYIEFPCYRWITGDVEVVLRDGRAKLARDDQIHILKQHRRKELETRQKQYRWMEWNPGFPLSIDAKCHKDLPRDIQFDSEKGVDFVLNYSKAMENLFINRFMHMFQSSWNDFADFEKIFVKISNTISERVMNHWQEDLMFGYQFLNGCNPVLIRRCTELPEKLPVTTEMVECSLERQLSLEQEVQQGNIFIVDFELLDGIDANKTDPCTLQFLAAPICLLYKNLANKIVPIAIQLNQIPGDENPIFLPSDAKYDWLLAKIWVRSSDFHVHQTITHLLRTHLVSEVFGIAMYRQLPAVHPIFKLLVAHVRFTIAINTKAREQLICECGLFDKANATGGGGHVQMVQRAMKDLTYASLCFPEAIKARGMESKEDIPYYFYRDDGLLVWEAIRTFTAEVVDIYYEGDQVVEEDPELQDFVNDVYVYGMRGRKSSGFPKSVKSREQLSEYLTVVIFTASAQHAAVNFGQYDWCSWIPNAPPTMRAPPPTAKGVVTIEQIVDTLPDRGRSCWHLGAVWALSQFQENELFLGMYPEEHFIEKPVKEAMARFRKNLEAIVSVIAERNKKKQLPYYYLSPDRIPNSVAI
Experimental: A 5-LO inhibitory activity was measured by a partially modified process of a process of Carter et al. (Carter G. W, et al, J. Pharmacol. Exp. Ther.: 256, 929-37, 1991). That is, human peripheral blood mononuclear cells and each of test compounds dissolved in DMSO (final concentration: 1%) were preincubated (37° C., 15 minutes) in a Hanks' balanced salt solution and 30 μM A23187 was further added, followed by incubation (37° C., 30 minutes). The amount of leukotriene B4 produced as a result of incubation was determined by enzyme immunoassay and a 50% production inhibitory concentration (μM) against 5-LO of each test compound was calculated.

[2] = tested on: lipid peroxidation activity of each tissue homogenate (brain, heart and kidney); experiment: Tissue migration properties: ex vivo lipid peroxidation inhibition in brain, heart and kidney homogenates; details: SD male rats, 100 mg/kg intraperitoneally, 30 minutes after administration; for Ex vivo lipid peroxidation inhibition inhibition ratio (%) Brain: brain homogenate; for Ex vivo lipid peroxidation inhibition inhibition ratio (%) Heart: heart homogenate; for Ex vivo lipid peroxidation inhibition inhibition ratio (%) Kidney: kidney homogenate
Experimental: (§1) An in vitro lipid peroxidation inhibition of the compounds of the present invention was evaluated by measuring a lipid peroxidation activity in a rat brain homogenate according to a process of Malvy, c., et al., Biochemical and Biophysical Research Communications, 1980, Vol. 95, p. 734-737. That is, a rat brain was extracted and a 5-fold amount of an aqueous phosphoric acid buffered saline solution (pH 7.4) (hereinafter abbreviated to PBS) was added to the brain under ice cooling, followed by homogenization using a Teflon homogenizer and further centrifugation at 10,000 g for 20 minutes to prepare a brain homogenate as a supernatant. To the brain homogenate thus prepared, 500 μM cysteine, 5 μM sulfuric acid monobasic iron and 100 mM KCl were added, followed by incubation at 37° C. for 30 minutes. Malondialdehyde produced by the […] of lipid peroxidation was measured by a thiobarbituric acid process.
Tissue migration properties of the compounds of the present invention were evaluated by measuring an ex vivo lipid peroxidation inhibition. A solution or suspension prepared by dissolving or suspending each of test compounds in an aqueous physiological saline solution or a 1% poly oxy ethylene hydrogenated castor oil (NIKKOL HCO-60, manufactured by Nikko Chemicals Co., Ltd.) physiological saline solution was intraperitoneally administered to SD male rats (one group: 3 rats, 6 weeks old) (available from Nippon SLC Co., Ltd.) at a dose of 100 mg/kg. 30 Minutes after administration, rats were bled to death by cutting the carotid artery and then the brain, heart and kidney were extracted. A lipid peroxidation activity of each tissue homogenate was measured by the process described in Example 18. An inhibition ratio in each tissue of the compounds of the present invention was determined from the amount of lipid peroxidation produced of a control group (physiological saline administration group) and a test compound administration group.

[3] = tested on: abnormal behavior and fatality due to ferrous chloride; experiment: In vivo antioxidative activity: ferrous chloride administration into spinal subarachnoid cavity of mice; design: species or system Slc:ICR male mice; details: score after 60 minutes; for In vivo antioxidation action 50% inhibitory concentration (ID50), Intraperitoneal administration: intraperitoneal administration 30 minutes before ferrous chloride into spinal canal; for In vivo antioxidation action 50% inhibitory concentration (ID50), Oral administration: oral administration 30 minutes before ferrous chloride into spinal canal
Experimental: An in vivo antioxidative activity of the compounds of the present invention was evaluated from an abnormal behavior due to administration of ferrous chloride into spinal subarachnoid cavity of mice as well as an inhibitory effect of a fatality rate according to the process described in J. Med. Chem., 1997, Vol. 40, p. 559-573. Using Slc:ICR male mice (one group: 3 to 7 mice, 5 weeks old) (available from Nippon SLC Co., Ltd.), 5 μl of a 50 mM ferrous chloride physiological saline solution was administered to the spinal canal through the space between the fifth lumbar vertebrae and the sixth lumbar vertebrae. 20 to 60 minutes after administration of ferrous chloride, symptoms were observed and a score after 60 minutes was determined from symptoms shown in Table 32. […] As is apparent from the results, the compounds of the present invention have an in vivo antioxidation action.

[4] = Acute oral toxicity, single oral dose, mortality rate after 7 days; details: mouse, in vivo, male mice, observed for 7 days
Experimental: A single dose of each of the compounds of the present invention was orally administered to male mice. After observing for 7 days, a mortality rate was determined.

[5] = tested on: lipid peroxidation activity in a rat brain homogenate; experiment: In vitro lipid peroxidation inhibition (rat brain homogenate, thiobarbituric acid process); format: biochemical; details: read-out: In vitro lipid peroxidation inhibition 50% inhibitory concentration (IC50 μM), 500 μM cysteine, 5 μM sulfuric acid monobasic iron, 100 mM KCl, 37° C. for 30 minutes
Experimental: as §1

SMILES: CC1=NN(c2ccccc2)C(=O)C1 [Compound R-4, edaravone]
- pIC50 [1]: 5.25
- 5-LO, percentage given after >10 (5-lipoxygenase (5-LO)): 32%
- pIC50 (5-lipoxygenase (5-LO)): < 5.00

SMILES: Cc1c(C)c2c(c(C)c1N)CC(C)(C(=O)N1CCN(c3ccc(-n4ccnc4)cc3)CC1)O2 (racemic) [Compound B-1-1, (±)-(5-amino-2,4,6,7-tetramethyldihydrobenzofuran-2-yl)-[4-(4-imidazol-1-ylphenyl)-piperazin-1-yl]carboxamide]
- Ex vivo lipid peroxidation inhibition inhibition ratio (%) Brain [2]: 96%
- Ex vivo lipid peroxidation inhibition inhibition ratio (%) Heart [2]: 88%
- Ex vivo lipid peroxidation inhibition inhibition ratio (%) Kidney [2]: 95%
- In vivo antioxidation action 50% inhibitory concentration (ID50), Intraperitoneal administration [3]: 4.4 mg/kg
- In vivo antioxidation action 50% inhibitory concentration (ID50), Oral administration [3]: 19 mg/kg

SMILES: Cc1c(C)c2c(c(C)c1N)CC(C)(CNc1ccc(-c3ccn[nH]3)cc1)O2 (racemic) [Compound B-2-5-1, 4-(±)-(5-amino-2,4,6,7-tetramethyldihydrobenzofuran-2-ylmethylamino)-phenyl-5-1H-pyrazole]
- LD50 at 7 days [4]: > 2000 mg/kg
- IC50 [5]: 0.42 µM
- Ex vivo lipid peroxidation inhibition inhibition ratio (%) Brain [2]: 96%
- Ex vivo lipid peroxidation inhibition inhibition ratio (%) Heart [2]: 88%
- Ex vivo lipid peroxidation inhibition inhibition ratio (%) Kidney [2]: 88%
- pIC50 [1]: 5.85
- In vivo antioxidation action 50% inhibitory concentration (ID50), Intraperitoneal administration [3]: 16 mg/kg
- In vivo antioxidation action 50% inhibitory concentration (ID50), Oral administration [3]: 17 mg/kg
- pIC50 (5-lipoxygenase (5-LO)): 6.80

SMILES: Cc1c(C)c2c(c(C)c1O)CC(C)(C(=O)Nc1ccc(-n3ccnc3)cc1)O2 (stereo not drawn) [Compound R-1, reference compound]
- IC50 [5]: 0.23 µM
- Ex vivo lipid peroxidation inhibition inhibition ratio (%) Brain [2]: 68%
- Ex vivo lipid peroxidation inhibition inhibition ratio (%) Heart [2]: 59%
- Ex vivo lipid peroxidation inhibition inhibition ratio (%) Kidney [2]: 75%
- In vivo antioxidation action 50% inhibitory concentration (ID50), Intraperitoneal administration [3]: >30 mg/kg
- In vivo antioxidation action 50% inhibitory concentration (ID50), Oral administration [3]: >30 mg/kg

SMILES: Cc1c(C)c2c(c(C)c1N)CC(C)(CN1CCC(c3ccccc3)CC1)O2 (stereo not drawn) [Compound R-3, reference compound]
- LD50 at 7 days [4]: < 300 mg/kg
- pIC50 [1]: 5.49
- 5-LO, percentage given after >10 (5-lipoxygenase (5-LO)): 34%
- pIC50 (5-lipoxygenase (5-LO)): < 5.00

SMILES: Cc1c(C)c2c(c(C)c1O)CCC(C)(C(=O)Nc1ccc(-n3ccnc3)cc1)O2 (stereo not drawn) [Compound R-2, reference compound]
- IC50 [5]: 0.23 µM
- Ex vivo lipid peroxidation inhibition inhibition ratio (%) Brain [2]: 45%
- Ex vivo lipid peroxidation inhibition inhibition ratio (%) Heart [2]: 57%
- Ex vivo lipid peroxidation inhibition inhibition ratio (%) Kidney [2]: 84%
- In vivo antioxidation action 50% inhibitory concentration (ID50), Intraperitoneal administration [3]: 20 mg/kg
- In vivo antioxidation action 50% inhibitory concentration (ID50), Oral administration [3]: 53 mg/kg
